According to patent US6914045B2, “Glycopeptide antibiotics” (Wyeth Holdings Corporation, priority 2001, dated 2005):
≈ marks a conversion by molar mass, not a printed value.

Tests used:
Assay in all cases: in vitro antibacterial evaluation, MIC by broth dilution
Assay type in all cases: cell-based
Enterococcus sp. = settings: broth dilution, 18 hours at 35° C.
Outline: (§1)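 Broth dilution per NCCLS standard M7-A2 in Muller-Hinton II […], with an inoculum of 5×10^5 CFU/mL and antibiotic spanning 64-0.06 μg/mL. The MIC is the lowest concentration that inhibits growth of the organism.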

Escherichia coli = settings: 18 hours at 35° C.; for MIC Escherichia coli (GC 4559): strain GC 4559; for MIC Escherichia coli (GC 4560): strain GC 4560
Outline: as §1

Staphylococcus sp. = settings: broth dilution, 18 hours at 35° C.
Outline: as §1

[1] = Enterococcus faecalis (ATCC 29212)
[2] = Enterococcus faecalis (GC 2242)
[3] = Enterococcus faecalis (GC 4552)

CC(c1ccccc1)C1NC(=O)CNC(=O)C(CO)NC(=O)C(C(O)C2CNC(=N)N2C2OC(CO)C(O)C(O)C2O)NC(=O)C(C(O)C2CNC(=N)N2)NC(=O)C(Cc2ccc(OC3OC(COC(=O)CCC4CCCC4)C(OC4OC(CO)C(O)C(O)C4O)C(O)C3O)cc2)NC1=O (centres unmarked) [Example 100b]
MIC Enterococcus faecalis (ATCC 29212) (Enterococcus sp.; [1]): 8 µg/mL (≈ 5.64 µM) | MIC Enterococcus faecalis (GC 2242) (Enterococcus sp.; [2]): 8 µg/mL (≈ 5.64 µM) | MIC Enterococcus faecalis (GC 4552) (Enterococcus sp.; [3]): 8 µg/mL (≈ 5.64 µM) | MIC Enterococcus faecalis (ATCC 29212) (Enterococcus sp.; strain ATCC 29212): 8 µg/mL (≈ 5.64 µM) | MIC Enterococcus faecalis (GC 2242) (Enterococcus sp.; strain GC 2242): 8 µg/mL (≈ 5.64 µM) | MIC Enterococcus faecalis (GC 4552) (Enterococcus sp.; strain GC 4552): 8 µg/mL (≈ 5.64 µM) | MIC Escherichia coli (GC 4559) (Escherichia coli): >128 µg/mL | MIC Escherichia coli (GC 4560) (Escherichia coli): 0.5 µg/mL (≈ 0.352 µM) | MIC Coagulase Negative Staphylococcus (GC 4537) (Staphylococcus sp.): 2 µg/mL (≈ 1.41 µM) | MIC Coagulase Negative Staphylococcus (GC 4538) (Staphylococcus sp.): 1 µg/mL (≈ 0.704 µM) | MIC Coagulase Negative Staphylococcus (GC 4547) (Staphylococcus sp.): 1 µg/mL (≈ 0.704 µM) | MIC Staphylococcus aureus (ATCC 29213) (Staphylococcus sp.): 2 µg/mL (≈ 1.41 µM) | MIC Staphylococcus aureus (GC 1131) (Staphylococcus sp.): 2 µg/mL (≈ 1.41 µM) | MIC Staphylococcus aureus (GC 4535) (Staphylococcus sp.): 2 µg/mL (≈ 1.41 µM) | MIC Staphylococcus aureus-SMITH (GC 4536) (Staphylococcus sp.): 2 µg/mL (≈ 1.41 µM) | MIC Coagulase Negative Staphylococcus (GC 4537) (Staphylococcus sp.; strain GC 4537): 2 µg/mL (≈ 1.41 µM) | MIC Coagulase Negative Staphylococcus (GC 4538) (Staphylococcus sp.; strain GC 4538): 1 µg/mL (≈ 0.704 µM) | MIC Coagulase Negative Staphylococcus (GC 4547) (Staphylococcus sp.; strain GC 4547): 1 µg/mL (≈ 0.704 µM) | MIC Staphylococcus aureus (ATCC 29213) (Staphylococcus sp.; strain ATCC 29213): 2 µg/mL (≈ 1.41 µM) | MIC Staphylococcus aureus (GC 1131) (Staphylococcus sp.; strain GC 1131): 2 µg/mL (≈ 1.41 µM) | MIC Staphylococcus aureus (GC 4535) (Staphylococcus sp.; strain GC 4535): 2 µg/mL (≈ 1.41 µM) | MIC Staphylococcus aureus-SMITH (GC 4536) (Staphylococcus sp.; strain GC 4536): 2 µg/mL (≈ 1.41 µM)

CC(c1ccccc1)C1NC(=O)CNC(=O)C(CO)NC(=O)C(C(O)C2CNC(=N)N2C2OC(CO)C(O)C(O)C2O)NC(=O)C(C(O)C2CNC(=N)N2)NC(=O)C(Cc2ccc(OC3OC(CO)C(OC4OC(COC(=O)CCC5CCCC5)C(O)C(O)C4O)C(O)C3O)cc2)NC1=O (centres unmarked) [Example 100c]
MIC Enterococcus faecalis (ATCC 29212) (Enterococcus sp.; [1]): 4 µg/mL (≈ 2.82 µM) | MIC Enterococcus faecalis (GC 2242) (Enterococcus sp.; [2]): 2 µg/mL (≈ 1.41 µM) | MIC Enterococcus faecalis (GC 4552) (Enterococcus sp.; [3]): 4 µg/mL (≈ 2.82 µM) | MIC Enterococcus faecalis (ATCC 29212) (Enterococcus sp.; strain ATCC 29212): 4 µg/mL (≈ 2.82 µM) | MIC Enterococcus faecalis (GC 2242) (Enterococcus sp.; strain GC 2242): 2 µg/mL (≈ 1.41 µM) | MIC Enterococcus faecalis (GC 4552) (Enterococcus sp.; strain GC 4552): 4 µg/mL (≈ 2.82 µM) | MIC Escherichia coli (GC 4559) (Escherichia coli): 32 µg/mL (≈ 22.5 µM) | MIC Escherichia coli (GC 4560) (Escherichia coli): 0.5 µg/mL (≈ 0.352 µM) | MIC Coagulase Negative Staphylococcus (GC 4537) (Staphylococcus sp.): 1 µg/mL (≈ 0.704 µM) | MIC Coagulase Negative Staphylococcus (GC 4538) (Staphylococcus sp.): 1 µg/mL (≈ 0.704 µM) | MIC Coagulase Negative Staphylococcus (GC 4547) (Staphylococcus sp.): 1 µg/mL (≈ 0.704 µM) | MIC Staphylococcus aureus (ATCC 29213) (Staphylococcus sp.): 1 µg/mL (≈ 0.704 µM) | MIC Staphylococcus aureus (GC 1131) (Staphylococcus sp.): 1 µg/mL (≈ 0.704 µM) | MIC Staphylococcus aureus (GC 4535) (Staphylococcus sp.): 1 µg/mL (≈ 0.704 µM) | MIC Staphylococcus aureus-SMITH (GC 4536) (Staphylococcus sp.): 1 µg/mL (≈ 0.704 µM) | MIC Coagulase Negative Staphylococcus (GC 4537) (Staphylococcus sp.; strain GC 4537): 1 µg/mL (≈ 0.704 µM) | MIC Coagulase Negative Staphylococcus (GC 4538) (Staphylococcus sp.; strain GC 4538): 1 µg/mL (≈ 0.704 µM) | MIC Coagulase Negative Staphylococcus (GC 4547) (Staphylococcus sp.; strain GC 4547): 1 µg/mL (≈ 0.704 µM) | MIC Staphylococcus aureus (ATCC 29213) (Staphylococcus sp.; strain ATCC 29213): 1 µg/mL (≈ 0.704 µM) | MIC Staphylococcus aureus (GC 1131) (Staphylococcus sp.; strain GC 1131): 1 µg/mL (≈ 0.704 µM) | MIC Staphylococcus aureus (GC 4535) (Staphylococcus sp.; strain GC 4535): 1 µg/mL (≈ 0.704 µM) | MIC Staphylococcus aureus-SMITH (GC 4536) (Staphylococcus sp.; strain GC 4536): 1 µg/mL (≈ 0.704 µM)
